Numbers after ± are expanded uncertainties.
What was measured:
[1] = refractive index (Na D-line) (dimensionless); an = ratio of the nth substance listed; settings: 101 kPa, Liquid, Standard Abbe refractometry
[2] = an = ratio of the nth substance listed; settings: for surface tension liquid-gas: Ring tensiometer; for viscosity / mass density: 101 kPa, Liquid; for viscosity: Concentric cylinders viscometry; for mass density: Vibrating tube method

Compound: O=C(CO)[C@@H](O)[C@H](O)[C@H](O)CO [D-fructose] + C[N+](C)(C)CCO.[Cl-]
- refractive index ([1]; 298.15 K, a2 = 1): 1.523 ± 0.014
- refractive index ([1]; 298.15 K, a2 = 1.5): 1.521 ± 0.014
- refractive index ([1]; 298.15 K, a2 = 2): 1.519 ± 0.014
- refractive index ([1]; 298.15 K, a2 = 2.5): 1.522 ± 0.014
- refractive index ([1]; 308.15 K, a2 = 1): 1.521 ± 0.014
- refractive index ([1]; 308.15 K, a2 = 1.5): 1.519 ± 0.014
- refractive index ([1]; 308.15 K, a2 = 2): 1.518 ± 0.014
- refractive index ([1]; 308.15 K, a2 = 2.5): 1.52 ± 0.014
- refractive index ([1]; 318.15 K, a2 = 1): 1.52 ± 0.014
- refractive index ([1]; 318.15 K, a2 = 1.5): 1.517 ± 0.014
- refractive index ([1]; 318.15 K, a2 = 2): 1.515 ± 0.014
- refractive index ([1]; 318.15 K, a2 = 2.5): 1.517 ± 0.014
- refractive index ([1]; 328.15 K, a2 = 1): 1.518 ± 0.014
- refractive index ([1]; 328.15 K, a2 = 1.5): 1.515 ± 0.014
- refractive index ([1]; 328.15 K, a2 = 2): 1.514 ± 0.014
- refractive index ([1]; 328.15 K, a2 = 2.5): 1.516 ± 0.014
- refractive index ([1]; 338.15 K, a2 = 1): 1.515 ± 0.014
- refractive index ([1]; 338.15 K, a2 = 1.5): 1.512 ± 0.014
- refractive index ([1]; 338.15 K, a2 = 2): 1.511 ± 0.014
- refractive index ([1]; 338.15 K, a2 = 2.5): 1.514 ± 0.014
- refractive index ([1]; 348.15 K, a2 = 1): 1.513 ± 0.014
- refractive index ([1]; 348.15 K, a2 = 1.5): 1.511 ± 0.014
- refractive index ([1]; 348.15 K, a2 = 2): 1.509 ± 0.014
- refractive index ([1]; 348.15 K, a2 = 2.5): 1.512 ± 0.014
- refractive index ([1]; 358.15 K, a2 = 1): 1.512 ± 0.014
- refractive index ([1]; 358.15 K, a2 = 1.5): 1.509 ± 0.014
- refractive index ([1]; 358.15 K, a2 = 2): 1.507 ± 0.014
- refractive index ([1]; 358.15 K, a2 = 2.5): 1.51 ± 0.014
- surface tension liquid-gas ([2]; 298.15 K, a2 = 1): 70.4 ± 1.1 mN/m
- surface tension liquid-gas ([2]; 298.15 K, a2 = 1.5): 73.6 ± 1.2 mN/m
- surface tension liquid-gas ([2]; 298.15 K, a2 = 2): 74 ± 1.2 mN/m
- surface tension liquid-gas ([2]; 298.15 K, a2 = 2.5): 75 ± 1.2 mN/m
- viscosity ([2]; 298.15 K, a2 = 1): 14347 ± 1800 mPa·s
- viscosity ([2]; 298.15 K, a2 = 1.5): 12772 ± 1600 mPa·s
- viscosity ([2]; 298.15 K, a2 = 2): 11733 ± 1400 mPa·s
- viscosity ([2]; 298.15 K, a2 = 2.5): 17646 ± 2200 mPa·s
- mass density ([2]; 298.15 K, a2 = 1): 1337 ± 1.6 kg/m3
- mass density ([2]; 298.15 K, a2 = 1.5): 1303.6 ± 1.5 kg/m3
- mass density ([2]; 298.15 K, a2 = 2): 1277.9 ± 1.5 kg/m3
- mass density ([2]; 298.15 K, a2 = 2.5): 1259 ± 1.4 kg/m3
- surface tension liquid-gas ([2]; 308.15 K, a2 = 1): 68 ± 1.1 mN/m
- surface tension liquid-gas ([2]; 308.15 K, a2 = 1.5): 71.7 ± 1.2 mN/m
- surface tension liquid-gas ([2]; 308.15 K, a2 = 2): 72 ± 1.2 mN/m
- surface tension liquid-gas ([2]; 308.15 K, a2 = 2.5): 73 ± 1.2 mN/m
- viscosity ([2]; 308.15 K, a2 = 1): 7722.9 ± 920 mPa·s
- viscosity ([2]; 308.15 K, a2 = 1.5): 7126.1 ± 840 mPa·s
- viscosity ([2]; 308.15 K, a2 = 2): 6137.1 ± 720 mPa·s
- viscosity ([2]; 308.15 K, a2 = 2.5): 8556.6 ± 1000 mPa·s
- mass density ([2]; 308.15 K, a2 = 1): 1331.6 ± 1.6 kg/m3
- mass density ([2]; 308.15 K, a2 = 1.5): 1298.2 ± 1.5 kg/m3
- mass density ([2]; 308.15 K, a2 = 2): 1272.5 ± 1.4 kg/m3
- mass density ([2]; 308.15 K, a2 = 2.5): 1253.7 ± 1.4 kg/m3
- surface tension liquid-gas ([2]; 318.15 K, a2 = 1): 66 ± 1.1 mN/m
- surface tension liquid-gas ([2]; 318.15 K, a2 = 1.5): 69.5 ± 1.1 mN/m
- surface tension liquid-gas ([2]; 318.15 K, a2 = 2): 70 ± 1.1 mN/m
- surface tension liquid-gas ([2]; 318.15 K, a2 = 2.5): 71 ± 1.1 mN/m
- viscosity ([2]; 318.15 K, a2 = 1): 4050.5 ± 470 mPa·s
- viscosity ([2]; 318.15 K, a2 = 1.5): 3071 ± 350 mPa·s
- viscosity ([2]; 318.15 K, a2 = 2): 2457 ± 280 mPa·s
- viscosity ([2]; 318.15 K, a2 = 2.5): 4461.7 ± 520 mPa·s
- mass density ([2]; 318.15 K, a2 = 1): 1326.2 ± 1.6 kg/m3
- mass density ([2]; 318.15 K, a2 = 1.5): 1292.7 ± 1.5 kg/m3
- mass density ([2]; 318.15 K, a2 = 2): 1266.9 ± 1.4 kg/m3
- mass density ([2]; 318.15 K, a2 = 2.5): 1248.5 ± 1.4 kg/m3
- surface tension liquid-gas ([2]; 328.15 K, a2 = 1): 64.4 ± 1.1 mN/m
- surface tension liquid-gas ([2]; 328.15 K, a2 = 1.5): 67.3 ± 1.1 mN/m
- surface tension liquid-gas ([2]; 328.15 K, a2 = 2): 68 ± 1.1 mN/m
- surface tension liquid-gas ([2]; 328.15 K, a2 = 2.5): 69 ± 1.1 mN/m
- viscosity ([2]; 328.15 K, a2 = 1): 1415.9 ± 160 mPa·s
- viscosity ([2]; 328.15 K, a2 = 1.5): 1271.1 ± 140 mPa·s
- viscosity ([2]; 328.15 K, a2 = 2): 1261.7 ± 140 mPa·s
- viscosity ([2]; 328.15 K, a2 = 2.5): 1267.5 ± 140 mPa·s
- mass density ([2]; 328.15 K, a2 = 1): 1320.7 ± 1.6 kg/m3
- mass density ([2]; 328.15 K, a2 = 1.5): 1287.3 ± 1.5 kg/m3
- mass density ([2]; 328.15 K, a2 = 2): 1261.2 ± 1.4 kg/m3
- mass density ([2]; 328.15 K, a2 = 2.5): 1243.3 ± 1.4 kg/m3
- surface tension liquid-gas ([2]; 338.15 K, a2 = 1): 62.6 ± 1 mN/m
- surface tension liquid-gas ([2]; 338.15 K, a2 = 1.5): 65.6 ± 1.1 mN/m
- surface tension liquid-gas ([2]; 338.15 K, a2 = 2): 66 ± 1.1 mN/m
- surface tension liquid-gas ([2]; 338.15 K, a2 = 2.5): 67 ± 1.1 mN/m
- viscosity ([2]; 338.15 K, a2 = 1): 806.5 ± 86 mPa·s
- viscosity ([2]; 338.15 K, a2 = 1.5): 698.4 ± 74 mPa·s
- viscosity ([2]; 338.15 K, a2 = 2): 570.7 ± 61 mPa·s
- viscosity ([2]; 338.15 K, a2 = 2.5): 615.4 ± 65 mPa·s
- mass density ([2]; 338.15 K, a2 = 1): 1315.2 ± 1.6 kg/m3
- mass density ([2]; 338.15 K, a2 = 1.5): 1281.8 ± 1.5 kg/m3
- mass density ([2]; 338.15 K, a2 = 2): 1255.5 ± 1.4 kg/m3
- mass density ([2]; 338.15 K, a2 = 2.5): 1237.9 ± 1.4 kg/m3
- surface tension liquid-gas ([2]; 348.15 K, a2 = 1): 61 ± 1 mN/m
- surface tension liquid-gas ([2]; 348.15 K, a2 = 1.5): 63 ± 1 mN/m
- surface tension liquid-gas ([2]; 348.15 K, a2 = 2): 64 ± 1 mN/m
- surface tension liquid-gas ([2]; 348.15 K, a2 = 2.5): 65 ± 1.1 mN/m
- viscosity ([2]; 348.15 K, a2 = 1): 459.7 ± 48 mPa·s
- viscosity ([2]; 348.15 K, a2 = 1.5): 353.1 ± 37 mPa·s
- viscosity ([2]; 348.15 K, a2 = 2): 285.3 ± 30 mPa·s
- viscosity ([2]; 348.15 K, a2 = 2.5): 325.5 ± 34 mPa·s
- mass density ([2]; 348.15 K, a2 = 1): 1309.3 ± 1.5 kg/m3
- mass density ([2]; 348.15 K, a2 = 1.5): 1275.9 ± 1.5 kg/m3
- mass density ([2]; 348.15 K, a2 = 2): 1249.7 ± 1.4 kg/m3
- mass density ([2]; 348.15 K, a2 = 2.5): 1232.4 ± 1.3 kg/m3
- surface tension liquid-gas ([2]; 358.15 K, a2 = 1): 59 ± 0.96 mN/m
- surface tension liquid-gas ([2]; 358.15 K, a2 = 1.5): 61.3 ± 1 mN/m
- surface tension liquid-gas ([2]; 358.15 K, a2 = 2): 62 ± 1 mN/m
- surface tension liquid-gas ([2]; 358.15 K, a2 = 2.5): 63 ± 1 mN/m
- viscosity ([2]; 358.15 K, a2 = 1): 280.6 ± 29 mPa·s
- viscosity ([2]; 358.15 K, a2 = 1.5): 236.1 ± 24 mPa·s
- viscosity ([2]; 358.15 K, a2 = 2): 129.3 ± 13 mPa·s
- viscosity ([2]; 358.15 K, a2 = 2.5): 182.6 ± 19 mPa·s
- mass density ([2]; 358.15 K, a2 = 1): 1303.1 ± 1.5 kg/m3
- mass density ([2]; 358.15 K, a2 = 1.5): 1269.7 ± 1.4 kg/m3
- mass density ([2]; 358.15 K, a2 = 2): 1241.9 ± 1.4 kg/m3
- mass density ([2]; 358.15 K, a2 = 2.5): 1226.9 ± 1.3 kg/m3
